One assay deals with T1, Endothelin-1 receptor (Homo sapiens, UniProt P25101).
T1 sequence (P25101 whole entry): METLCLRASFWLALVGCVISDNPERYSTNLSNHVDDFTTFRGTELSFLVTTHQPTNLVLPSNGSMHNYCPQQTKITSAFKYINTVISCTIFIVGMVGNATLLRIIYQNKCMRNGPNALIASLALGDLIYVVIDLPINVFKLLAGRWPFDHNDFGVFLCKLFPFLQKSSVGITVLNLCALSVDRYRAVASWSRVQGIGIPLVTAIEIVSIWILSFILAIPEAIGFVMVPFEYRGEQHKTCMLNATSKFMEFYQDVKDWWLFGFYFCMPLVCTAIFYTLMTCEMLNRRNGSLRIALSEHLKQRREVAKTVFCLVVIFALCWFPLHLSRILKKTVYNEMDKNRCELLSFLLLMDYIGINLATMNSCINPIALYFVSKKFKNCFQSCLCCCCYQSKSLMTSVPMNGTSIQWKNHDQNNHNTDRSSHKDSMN

For assay [1], the target named is T2, Endothelin receptor type B (Homo sapiens, UniProt P24530).
T2 sequence (P24530 whole entry): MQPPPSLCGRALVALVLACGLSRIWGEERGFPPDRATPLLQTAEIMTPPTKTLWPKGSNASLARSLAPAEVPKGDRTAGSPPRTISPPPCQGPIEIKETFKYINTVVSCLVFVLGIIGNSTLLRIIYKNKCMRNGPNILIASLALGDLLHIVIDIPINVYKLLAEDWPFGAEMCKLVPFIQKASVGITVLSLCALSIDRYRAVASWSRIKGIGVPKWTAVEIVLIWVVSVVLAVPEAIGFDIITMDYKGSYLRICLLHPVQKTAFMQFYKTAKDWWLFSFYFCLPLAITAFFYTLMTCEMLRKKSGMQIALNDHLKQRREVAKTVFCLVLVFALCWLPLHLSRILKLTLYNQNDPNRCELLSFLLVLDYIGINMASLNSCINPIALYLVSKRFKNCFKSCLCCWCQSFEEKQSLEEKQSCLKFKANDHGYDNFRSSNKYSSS

On to `CCCCc1ccc2c(n1)[C@@H](c1ccc(OC)cc1C[C@H](C)C(=O)O)[C@H](C(=O)O)[C@H]2c1ccc2c(c1)OCO2` [J-104132], for which the inhibition constant (Ki) at Endothelin-1 receptor was found to be 0.03 nM; in assay [1], 0.1 nM.

(Values after BindingDB's records for PubMed 10336515 (Banyu Pharmaceutical, 1999).)
